What is called MIC is the least concentration at which growth counts as inhibited. A high value points to a less susceptible organism.

Each structure is given as a SMILES string. Values after ≈ are worked out from the molar mass of the structure shown.

Experimental findings from patent publication CN106581687A, “以乳清蛋白为基质的桃柁酚抗菌纳米水凝胶及其制备方法” (Jilin University, priority 2016, dated 2017) are described below.

This assay deals with Staphylococcus aureus (金黄色葡萄球菌), S.aureus strains ATCC 29213. Briefly: 最小抑菌浓度MIC (minimum inhibitory concentration of totarol). It is filed as cell-based. Conditions: value used for loading in the Example concerned.

For the setting “Staphylococcus aureus, ATCC29213, totarol against Staphylococcus aureus”, `CC(C)c1c(O)ccc2c1CC[C@H]1C(C)(C)CCC[C@]21C` [桃柁酚, 桃柁酚(Totarol)] gave an MIC of 2 µg/mL (≈ 6.98 µM). Besides, the “minimum inhibitory concentration (MIC value)” value (totarol against Staphylococcus aureus) turned out to be 4 µg/mL (≈ 14 µM).
